Test results from patent US12291516B2, “Substituted 1-amino-1H-imidazole-5-carboxamide as Bruton's tyrosine kinase inhibitors” (Henan Zhiwei Biomedicine Co., Ltd., priority 2019, dated 2025).

Experiments:
[1] = molecular target: T1, BTK (Homo sapiens (Human), UniProt Q06187); assay: In house ELISA kinase inhibition assay, BTK; type: biochemical; conditions: footnote b: from in house procedure (ELISA)
Method: (§1) BTK inhibition Assay and selectivity Assay The assay was conducted either a by a third party (Reaction Biology Corporation, PA, USA) or in house.
(§2) b) In House Procedure for BTK, BMX, EGFR and ITK:
(§3) Kinase inhibitory activities of compounds were evaluated using the Enzyme-linked immunosorbent assay (ELISA). The kinase enzyme of BTK, BMX, EGFR and ITK were purchased from Carna Bioscience (Kobe, Japan). A total of 10 ng/mL antiphosphotyrosine (PY713) antibody (abcam, Cambridge Science Park, UK) was precoated in 96-well ELISA plates. The kinase enzymes in each reaction well were set to BTK (101.25 ng/mL), BMX (90 ng/mL), EGFR (90 ng/mL) or ITK (120 ng/mL) and incubated with indicated drugs in 1× reaction buffer (50 mmol/L HEPES pH 7.4, 20 mmol/L MgCl2, 0.1 mmol/L MnCl2, 1 mmol/L DTT) containing 20 μmol/L (the final concentration of substrate in ITK reaction was 30 μmol/L) substrate (NH2-[…]-biotin) at 25° C. for 1 h. Then, a total of 3 μmol/L ATP was added and the reaction was continued for 2 h. The products of reaction were transferred into 96-well ELISA plates containing antibody and incubated at 25° C. for 30 min. After incubation, the wells were washed with PBS and then incubated with horseradish peroxidase (HRP)-conjugated streptavidin. The wells were visualized using 3,3′,5,5′-tetramethylbenzidine (TMB), and chromogenic reaction was ended with 2 mol/L H2SO4, the absorbance was read with a multimode plate reader (PerkinElmer, USA) at 450 nm. IC50 values and curve fits were obtained using Prism (GraphPad Software). (Table I-IV)

[2] = molecular target: T1, BTK; assay: BTK inhibition assay by Reaction Biology Corporation (33P-ATP, filter-binding); type: biochemical; conditions: footnote a: from Reaction Biology Corporation
Method: as §1
a) Reagent and Procedure by Reaction Biology Corporation:
Base Reaction buffer; 20 mM Hepes (pH 7.5), 10 mM MgCl2, 1 mM EGTA, 0.02%. Brij35, 0.02 mg/ml BSA, 0.1 mM Na3VO4, 2 mM DTT, 1% DMSO. Required cofactors were added individually to each kinase reaction. Compound handling: testing compounds were dissolved in 100% DMSO to specific concentration. The serial dilution was conducted by Integra Viaflo Assist in DMSO.
The substrate was prepared in freshly prepared reaction buffer of above and required cofactors were added to the substrate solution. The kinase was delivered to the substrate solution and the mixture was gently mixed. Testing compounds in 100% DMSO was added to the kinase reaction mixture by Acoustic technology (Echo550; nanoliter range) and the new mixture was incubated for 20 min at room temperature. Then ^33P-ATP (Specific activity 10 μCi/μl) was added to the reaction mixture to initiate the reaction and the mixture was incubated for 2 hours at room temperature. The radioactivity was detected by filter-binding method and the kinase activity data was expressed as the percent of remaining kinase activity in test sample compared to vehicle (dimethyl sulfoxide) reaction. IC50 values and curve fits were obtained using Prism (GraphPad Software). The result is outlined in Table-I

[3] = test system: TMD-8; assay: In-vitro antitumor activity assay (CellTiter-Glo cell antiproliferative activity); type: cell-based; conditions: Homo sapiens, TMD8, TMD-8 cells, 72 h
Method: In-Vitro Antitumor Activity Assay
Method: Reagent and procedure by Hefei PreceDo pharmaceuticals Co. Ltd.
Cell antiproliferative activity was evaluated by the CellTiter-Glo (Promega, USA) assay. Make 1000× compounds solution in DMSO, add 1 μl 1000× compounds to […] growth medium to make 20× compounds. Dilute cell suspensions in growth medium to desired density and 95 μl were taken to 96-well plate. Add 5 μl 20× compounds into 96-well plate according to the plate map. Final DMSO concentration in each well was 0.1%. Then the cell was incubated at 37° C., 5% CO2 for 72 h. Equilibrate the assay plate to room temperature before measurement. Add 20 μl of CellTiter-Glo© Reagent into each well. Mix contents for 2 minutes on an orbital shaker to induce cell lysis. Incubate at room temperature for 10 minutes to stabilize luminescent signal. Record luminescence using EnVision Multilabel Reader (PerkinElmer). Cell viability (CV %) was calculated relative to vehicle (DMSO) treated control wells using following formula: Cell viability (%)=(RLU compound−RLU blank)/(RLU control−RLU blank)*100%. The IC50 values were calculated using GraphPad Prism 6.0 software, fitting to a 4-parameter equation to generate concentration response curves. All assays were conducted with three parallel samples and three repetitions.

[4] = molecular target: ITK (Homo sapiens (Human), UniProt Q08881); assay: In house ELISA kinase inhibition assay, ITK; type: biochemical; conditions: for IC50: in house ELISA; for Selectivity ratio: selectivity for BTK and ITK
Method: as §1, §2, §3

[5] = molecular target: EGFR (Homo sapiens (Human), UniProt P00533); assay: In house ELISA kinase inhibition assay, EGFR; type: biochemical; conditions: for IC50: in house ELISA; for Selectivity ratio: selectivity for BTK and EGFR
Method: as §1, §2, §3

[6] = molecular target: BMX (Homo sapiens (Human), UniProt P51813); assay: In house ELISA kinase inhibition assay, BMX; type: biochemical; conditions: for IC50: in house ELISA; for Selectivity ratio: selectivity for BTK and BMX
Method: as §1, §2, §3

T1 sequence (Q06187 whole entry): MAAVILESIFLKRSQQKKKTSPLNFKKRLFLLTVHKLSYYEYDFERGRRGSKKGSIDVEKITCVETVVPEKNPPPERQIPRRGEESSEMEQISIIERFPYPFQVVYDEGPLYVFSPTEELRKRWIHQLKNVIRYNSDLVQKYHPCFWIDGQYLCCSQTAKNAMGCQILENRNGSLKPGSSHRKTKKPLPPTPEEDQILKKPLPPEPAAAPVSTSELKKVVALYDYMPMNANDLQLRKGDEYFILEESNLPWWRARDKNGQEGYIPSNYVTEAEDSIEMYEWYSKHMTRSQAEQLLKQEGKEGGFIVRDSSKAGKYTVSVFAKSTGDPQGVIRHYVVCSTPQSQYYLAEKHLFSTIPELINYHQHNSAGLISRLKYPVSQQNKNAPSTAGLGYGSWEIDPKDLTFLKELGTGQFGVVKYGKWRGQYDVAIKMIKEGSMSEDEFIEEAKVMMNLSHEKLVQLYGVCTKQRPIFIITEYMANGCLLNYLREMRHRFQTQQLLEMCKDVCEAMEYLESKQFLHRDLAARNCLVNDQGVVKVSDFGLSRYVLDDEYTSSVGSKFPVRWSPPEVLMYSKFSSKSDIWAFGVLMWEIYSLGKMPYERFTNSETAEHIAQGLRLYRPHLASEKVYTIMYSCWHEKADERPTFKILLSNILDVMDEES
Chain of ITK (Q08881 whole entry): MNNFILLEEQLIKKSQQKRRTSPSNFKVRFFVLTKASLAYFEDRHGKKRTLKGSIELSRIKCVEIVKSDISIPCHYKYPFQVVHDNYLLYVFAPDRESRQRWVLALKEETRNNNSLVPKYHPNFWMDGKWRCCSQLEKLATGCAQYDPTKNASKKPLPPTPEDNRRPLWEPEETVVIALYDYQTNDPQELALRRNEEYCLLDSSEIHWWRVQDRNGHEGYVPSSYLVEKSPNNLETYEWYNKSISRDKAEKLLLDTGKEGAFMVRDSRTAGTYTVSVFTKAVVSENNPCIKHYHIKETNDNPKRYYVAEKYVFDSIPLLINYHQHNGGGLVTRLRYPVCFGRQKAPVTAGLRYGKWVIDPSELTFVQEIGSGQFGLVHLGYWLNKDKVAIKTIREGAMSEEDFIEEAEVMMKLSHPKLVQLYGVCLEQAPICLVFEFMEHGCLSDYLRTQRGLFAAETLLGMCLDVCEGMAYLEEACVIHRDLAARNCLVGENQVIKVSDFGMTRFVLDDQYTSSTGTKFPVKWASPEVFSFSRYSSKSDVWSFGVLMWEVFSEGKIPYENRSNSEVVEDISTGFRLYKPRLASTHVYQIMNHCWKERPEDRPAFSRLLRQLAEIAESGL
Chain of BMX (P51813 whole entry): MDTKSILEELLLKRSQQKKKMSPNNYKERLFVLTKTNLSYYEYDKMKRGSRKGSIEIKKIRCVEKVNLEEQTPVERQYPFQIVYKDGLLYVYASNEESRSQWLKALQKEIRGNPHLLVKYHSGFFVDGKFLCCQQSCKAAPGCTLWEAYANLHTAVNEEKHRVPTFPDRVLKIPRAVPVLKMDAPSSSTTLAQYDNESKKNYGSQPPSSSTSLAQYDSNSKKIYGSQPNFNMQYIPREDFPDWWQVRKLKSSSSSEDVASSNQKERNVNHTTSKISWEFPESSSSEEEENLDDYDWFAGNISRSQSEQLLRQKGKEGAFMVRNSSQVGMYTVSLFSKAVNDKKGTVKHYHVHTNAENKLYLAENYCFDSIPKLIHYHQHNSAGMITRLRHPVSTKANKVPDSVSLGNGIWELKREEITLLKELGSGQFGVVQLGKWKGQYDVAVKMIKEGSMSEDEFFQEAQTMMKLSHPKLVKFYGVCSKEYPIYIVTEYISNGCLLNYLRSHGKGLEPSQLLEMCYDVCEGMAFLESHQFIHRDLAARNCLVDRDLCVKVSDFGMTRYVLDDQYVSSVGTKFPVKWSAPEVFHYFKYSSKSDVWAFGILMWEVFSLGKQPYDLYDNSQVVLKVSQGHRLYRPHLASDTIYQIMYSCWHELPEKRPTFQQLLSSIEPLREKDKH
Chain of EGFR (P00533 25-1210): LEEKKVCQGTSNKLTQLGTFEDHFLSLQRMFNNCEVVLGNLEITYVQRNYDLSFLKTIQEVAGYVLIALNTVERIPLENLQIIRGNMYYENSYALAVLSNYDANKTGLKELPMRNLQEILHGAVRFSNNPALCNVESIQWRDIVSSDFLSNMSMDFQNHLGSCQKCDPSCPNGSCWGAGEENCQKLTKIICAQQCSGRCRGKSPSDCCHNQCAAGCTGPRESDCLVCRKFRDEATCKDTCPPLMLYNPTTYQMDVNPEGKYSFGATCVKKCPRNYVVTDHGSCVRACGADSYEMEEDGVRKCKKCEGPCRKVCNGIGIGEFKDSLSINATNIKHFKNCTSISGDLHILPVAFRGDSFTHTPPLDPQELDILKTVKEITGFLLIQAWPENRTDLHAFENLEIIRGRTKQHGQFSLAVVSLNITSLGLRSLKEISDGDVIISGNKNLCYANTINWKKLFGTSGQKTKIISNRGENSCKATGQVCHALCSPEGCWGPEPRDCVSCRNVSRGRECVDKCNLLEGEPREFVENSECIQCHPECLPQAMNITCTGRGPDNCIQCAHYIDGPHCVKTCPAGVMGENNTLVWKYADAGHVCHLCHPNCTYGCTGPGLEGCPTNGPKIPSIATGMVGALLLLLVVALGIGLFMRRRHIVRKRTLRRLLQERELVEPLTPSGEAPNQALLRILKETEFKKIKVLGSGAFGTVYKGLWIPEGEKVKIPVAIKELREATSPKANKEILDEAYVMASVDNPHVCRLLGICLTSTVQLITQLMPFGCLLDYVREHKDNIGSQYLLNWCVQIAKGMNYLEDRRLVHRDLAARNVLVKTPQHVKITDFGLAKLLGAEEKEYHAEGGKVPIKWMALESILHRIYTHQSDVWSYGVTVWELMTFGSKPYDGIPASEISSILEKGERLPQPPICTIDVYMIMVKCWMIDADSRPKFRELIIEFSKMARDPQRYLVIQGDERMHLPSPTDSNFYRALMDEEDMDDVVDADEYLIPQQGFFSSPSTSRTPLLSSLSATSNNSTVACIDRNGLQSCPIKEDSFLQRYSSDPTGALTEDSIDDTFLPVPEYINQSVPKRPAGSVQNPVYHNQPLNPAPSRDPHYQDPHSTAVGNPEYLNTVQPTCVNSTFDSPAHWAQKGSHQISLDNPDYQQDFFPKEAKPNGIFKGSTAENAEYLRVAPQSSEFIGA

Structure (SMILES) | IC50 [1] [nM] | IC50 [2] [nM] | IC50 [3] [nM] | IC50 [4] [µM] | Selectivity ratio [4] | IC50 [5] [µM] | Selectivity ratio [5] | IC50 [6] [nM] | Selectivity ratio [6]
C#CC(=O)N1CCC[C@H]1c1nc(-c2ccc(C(=O)Nc3cc(C)ccn3)cc2)c(C(N)=O)n1N [Example 17, (S)-1-amino-4-(4-((4-methylpyridin-2-yl)carbamoyl)phenyl)-2-(1-propioloylpyrrolidin-2-yl)-1H-imidazole-5-carboxamide] | 30.3 | 24.4 | – | – | – | – | – | – | –
CC#CC(=O)N1CCC[C@H]1c1nc(-c2ccc(C(=O)Nc3cc(C)ccn3)cc2)c(C(N)=O)n1N [Example 18, (S)-1-amino-2-(1-(but-2-ynoyl)pyrrolidin-2-yl)-4-(4-((4-methylpyridin-2-yl)carbamoyl)phenyl)-1H-imidazole-5-carboxamide] | 3080 | 7200 | – | – | – | – | – | – | –
C#CC(=O)N1CCC[C@H]1c1nc(-c2ccc(C(=O)Nc3ccc(C)cn3)cc2)c(C(N)=O)n1N [Example 26, (S)-1-amino-4-(4-((5-methylpyridin-2-yl)carbamoyl)phenyl)-2-(1-propioloylpyrrolidin-2-yl)-1H-imidazole-5-carboxamide] | 18.4 | 12.5 | – | – | – | – | – | – | –
CC#CC(=O)N1CCCC[C@H]1c1nc(-c2ccc(C(=O)Nc3cc(I)ccn3)cc2)c(C(N)=O)n1N [Example 90, (S)-1-amino-2-(1-(but-2-ynoyl)piperidin-2-yl)-4-(4-((4-iodopyridin-2-yl)carbamoyl)phenyl)-1H-imidazole-5-carboxamide] | – | 10.7 | 35.1 | 0.532 | 49.9 | 4.68 | 439 | 226 | 21.2
CC#CC(=O)N1CCCC[C@H]1c1nc(-c2ccc(C(=O)Nc3cc(-c4ccc(F)cc4)ccn3)cc2)c(C(N)=O)n1N [Example 92, (S)-1-amino-2-(1-(but-2-ynoyl)piperidin-2-yl)-4-(4-((4-(4-fluorophenyl)pyridin-2-yl)carbamoyl)phenyl)-1H-imidazole-5-carboxamide] | – | 14.7 | 90.8 | 33.1 | 2255 | 1.09 | 74 | 154 | 10.5
CC#CC(=O)N1CCCC[C@H]1c1nc(-c2ccc(C(=O)Nc3cc(Cl)ccn3)cc2)c(C(N)=O)n1N [Example 98, (S)-1-amino-2-(1-(but-2-ynoyl)piperidin-2-yl)-4-(4-((4-chloropyridin-2-yl)carbamoyl)phenyl)-1H-imidazole-5-carboxamide] | 19.4 | – | 37 | 16.5 | 850 | 3.98 | 206 | 1080 | 55.8

More lines, now with the values ahead:

IC50 [1] [nM] | IC50 [2] [nM] | IC50 [3] [nM] | IC50 [4] [µM] | Selectivity ratio [4] | IC50 [5] [µM] | Selectivity ratio [5] | IC50 [6] [nM] | Selectivity ratio [6] | Structure (SMILES)
176 | 131 | – | – | – | – | – | – | – | C=CC(=O)N1CCC[C@H]1c1nc(-c2ccc(C(=O)Nc3ccccn3)cc2)c(C(N)=O)n1N [Example 1, (S)-2-(1-acryloylpyrrolidin-2-yl)-1-amino-4-(4-(pyridin-2-yl-carbamoyl)phenyl)-1H-imidazole-5-carboxamide]
13.1 | 44.6 | – | – | – | – | – | – | – | C=CC(=O)N1CCCC[C@H]1c1nc(-c2ccc(C(=O)Nc3ccccn3)cc2)c(C(N)=O)n1N [Example 46, (S)-2-(1-acryloylpiperidin-2-yl)-1-amino-4-(4-(pyridin-2-ylcarbamoyl)phenyl)-1H-imidazole-5-carboxamide]
22.6 | 55.1 | – | – | – | – | – | – | – | C=CC(=O)N1CCCC[C@H]1c1nc(-c2ccc(C(=O)Nc3cc(C(C)C)ccn3)cc2)c(C(N)=O)n1N [Example 71, (S)-2-(1-acryloylpiperidin-2-yl)-1-amino-4-(4-((4-isopropylpyridin-2-yl)carbamoyl)phenyl)-1H-imidazole-5-carboxamide]
11.2 | 10.1 | 19 | – | – | – | – | – | – | C=CC(=O)N1CCCC[C@H]1c1nc(-c2ccc(C(=O)Nc3cc(Cl)ccn3)cc2)c(C(N)=O)n1N [Example 72, (S)-2-(1-acryloylpiperidin-2-yl)-1-amino-4-(4-((4-chloropyridin-2-yl)carbamoyl)phenyl)-1H-imidazole-5-carboxamide]
